Reference: US9308198B2, “Treatment, prevention, and reversal of alcohol-induced brain disease” (priority 2006, dated 2016)

Assays:
[1] = system: primary cerebellar neuron cultures; settings: 10 mM for 3 hours; control and ethanol-exposed cultures
Experimental: (§1) In vitro experiments were used to examine the effects of ethanol on receptor binding and choline acetyltransferase (ChAT) and acetylcholinesterase (AChE) expression in cerebellar neurons. Primary neuronal cultures were generated with postnatal day 8 rat pup cerebellar tissue (Nikolic et al. Genes Dev. 10:816 (1996)). The cultures were maintained with Dulbecco's modified Eagle's medium (DMEM) supplemented with 5% fetal calf serum, 4 mM glutamine, 100 μM non-essential amino acid mixture (Gibco-BRL, Grand Island, N.Y.), 25 mM KCl, and 9 g/L glucose. Ethanol treatment was accomplished by placing the cultures (seeded in 6-well dishes or 96-well plates) in sealed chambers in which 50 mM ethanol was vaporized from a reservoir tray (de la Monte et al. Alcohol Clin. Exp. Res. 24:716 (2000); Banerjee et al. Alcohol Clin. Exp. Res. 22:2093 (1998)). Control cultures were identically treated but with water added to the reservoir tray. The chambers were flushed with gas containing 75% nitrogen, 20% oxygen, and 5% carbon dioxide. After 96 hours incubation at 37° C., the cells were harvested to measure insulin, IGF-I, and IGF-II receptor binding. Alternatively, the cells were serum-starved for 12 hours and then stimulated with 10 nM insulin, 10 mM IGF-I, 25 nM IGF-II, or vehicle for 16 hours, and RNA was harvested to measure ChAT and AChE expression. Parallel 96-well cultures stimulated with growth factors for 10 minutes were used to measure ATP, or for 16 hours to measure viability, and ChAT or AChE immunoreactivity. […] To examine the effects of membrane cholesterol content on growth factor stimulated neuronal viability and function, identically treated 96-well cultures were stimulated with vehicle, 10 nM insulin, 10 nM IGF-I, or 25 nM IGF-II for 10 minutes and then analyzed for ATP content, or for 16 hours and then used to measure viability and ChAT or AChE immunoreactivity with the MICE assay (de la Monte et al., Biotechniques 26:1073 (1999)). ATP content was measured with the ATPLite assay (Packard, Meriden, Conn.). Viability was measured using the CyQuant assay (Molecular Probes, Eugene, Oreg.). Immunoreactivity was measured directly in the cultured wells using the microtiter immunocytochemical ELISA (MICE) assay (de la Monte et al., Biotechniques 26:1073 (1999)).
The effects of cholesterol or MβCD treatment on neuronal viability (FIGS. 19A-19C), ATP production (energy metabolism; FIGS. 19D-19F), ChAT (FIGS. […]) and AChE (FIGS. 19J-19L) immunoreactivity were examined in cells that were treated as described above and stimulated 12 hours with vehicle (control), 10 nM insulin, 10 nM IGF-I, or 25 nM IGF-II in serum-free medium. […] Viability was measured using the CyQuant assay and ATP content was measured using the ATPLite assay. […]

[2] = system: primary cerebellar neuron cultures; test: Membrane cholesterol content, primary cerebellar neuron cultures; assay type: cell-based, rat; settings: for membrane cholesterol content: 10 mM for 3 hours in Locke's buffer, control and ethanol-exposed cerebellar cultures
Experimental: as §1, with “binding.” for “binding. Alternatively, the cells were serum-starved for 12 hours and then stimulated with 10 nM insulin, 10 mM IGF-I, 25 nM IGF-II, or vehicle for 16 hours, and RNA was harvested to measure ChAT and AChE expression. Parallel 96-well cultures stimulated with growth factors for 10 minutes were used to measure ATP, or for 16 hours to measure viability, and ChAT or AChE immunoreactivity.”

AChE = AChE immunoreactivity (MICE assay); assay type: cell-based; settings: 10 mM for 3 hours; control and ethanol-exposed cells
Experimental: In vitro experiments were used to examine the effects of ethanol on receptor binding and choline acetyltransferase (ChAT) and acetylcholinesterase (AChE) expression in cerebellar neurons. Primary neuronal cultures were generated with postnatal day 8 rat pup cerebellar tissue (Nikolic et al. Genes Dev. 10:816 (1996)). The cultures were maintained with Dulbecco's modified Eagle's medium (DMEM) supplemented with 5% fetal calf serum, 4 mM glutamine, 100 μM non-essential amino acid mixture (Gibco-BRL, Grand Island, N.Y.), 25 mM KCl, and 9 g/L glucose. […] To examine the effects of membrane cholesterol content on growth factor stimulated neuronal viability and function, identically treated 96-well cultures were stimulated with vehicle, 10 nM insulin, 10 nM IGF-I, or 25 nM IGF-II for 10 minutes and then analyzed for ATP content, or for 16 hours and then used to measure viability and ChAT or AChE immunoreactivity with the MICE assay (de la Monte et al., Biotechniques 26:1073 (1999)). ATP content was measured with the ATPLite assay (Packard, Meriden, Conn.). Viability was measured using the CyQuant assay (Molecular Probes, Eugene, Oreg.). Immunoreactivity was measured directly in the cultured wells using the microtiter immunocytochemical ELISA (MICE) assay (de la Monte et al., Biotechniques 26:1073 (1999)). […]

cerebellar ATP content = settings: rat, in vivo
Experimental: Studies were done to characterize the degree to which ethanol-associated impairments in receptor binding were associated with reductions in insulin and IGF-I receptor tyrosine kinase activities, and insulin and IGF-I receptor protein expression. Receptor protein levels were measured by Western blotting with digital image densitometry.

Row | Compound | mitochondrial function (ATP content) [1] | neuronal viability [1] | membrane cholesterol content [2] | mean levels of AChE (AChE) | cerebellar neuron membrane cholesterol content ([2]; in vitro exposure to 50 mM ethanol for 96 hours) | cerebellar ATP content (cerebellar ATP content)
1 | Methyl-β-cyclodextrin [MβCD] | broadly reduced | broadly reduced | significantly reduced | significantly increased | – | –
2 | CCO [ethanol] | – | – | – | – | significantly reduced | dose-dependent progressive reductions
3 | CC(C)CCC[C@@H](C)[C@H]1CC[C@H]2[C@@H]3CC=C4C[C@@H](O)CC[C@]4(C)[C@H]3CC[C@]12C [cholesterol] | broadly reduced | broadly reduced | significantly increased | significantly increased | – | –
